# Data reported in patent publication US20240239775A1, “FXR REGULATOR, PREPARATION METHOD THEREFOR, PHARMACEUTICAL COMPOSITION THEREOF AND USE THEREOF” (QINGDAO RUIJI MEDICAL TECHNOLOGY CO., LTD., priority 2021, published 2024).
# Target: T1, FXR (Homo sapiens, UniProt Q96RI1)
# T1 construct: 5 μL of 20 nM FXR-LBD Complete Coregulator buffer G; purchased ThermoFisher PV4833
# T1 sequence (Q96RI1 262-486 limits assumed): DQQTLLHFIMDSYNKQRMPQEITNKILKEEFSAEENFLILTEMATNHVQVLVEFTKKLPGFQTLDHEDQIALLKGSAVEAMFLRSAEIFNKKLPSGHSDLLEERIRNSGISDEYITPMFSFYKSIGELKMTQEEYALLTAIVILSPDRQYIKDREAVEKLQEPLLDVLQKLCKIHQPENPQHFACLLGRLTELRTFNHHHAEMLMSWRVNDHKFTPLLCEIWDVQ
# Test: FXR antagonist screening by TR-FRET (LanthaScreen TR-FRET FXR co-activation assay kit)
# Format: biochemical
# Conditions: Table 1.1, FXR antagonistic activity; TR-FRET with CDCA; geometric means of at least two independent runs
# Summary of the method: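 FXR-LBD (20 nM working solution) mixed with compound, CDCA (200 μM working solution) as agonist, Fluorescein-SRC2-2 and Tb-anti-GST antibody in Coregulator buffer G; 10 h at room temperature. Coactivator recruitment read by TR-FRET, triplicate wells.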
row,Compound,IC50 [µM]
1,"Cc1c(C(=O)O)oc2ccc(S(=O)(=O)N(CCc3ccccc3)c3ccccc3)cc12 [Example F27-S10, 3-methyl-5-(N-phenethyl-N-phenylsulfamoyl)benzofuran-2-carboxylic acid]",50 to 100
2,"CCOC(=O)c1oc2ccc(S(=O)(=O)N(CCc3ccccc3)Cc3ccc(Cl)cc3)cc2c1C [Example M4-29, ethyl 3-methyl-5-(N-(4-chlorobenzyl)-N-phenethylsulfamoyl)benzofuran-2-carboxylate]",50 to 100
3,"CCOC(=O)c1oc2ccc(S(=O)(=O)N(CCc3ccccc3)Cc3ccc(C(=O)OC)cc3)cc2c1C [Example M4-39, ethyl 3-methyl-5-(N-(4-(methoxycarbonyl)benzyl)-N-phenethylsulfamoyl)benzofuran-2-carboxylate]",50 to 100
4,"CCOC(=O)c1oc2ccc(S(=O)(=O)N(CCc3ccccc3)c3ccc(N4CCN(C)CC4)cc3)cc2c1C [Example M8-64, ethyl 3-methyl-5-(N-(4-(4-methylpiperazin-1-yl)phenyl)-N-phenethylsulfamoyl)benzofuran-2-carboxylate]",50 to 100
5,"CCOC(=O)c1oc2ccc(S(=O)(=O)N(CCc3ccccc3)c3ccc(N4CCN(C(=O)OC(C)(C)C)CC4)nc3)cc2c1C [Example M8-75, ethyl 3-methyl-5-(N-(6-(4-(tert-butoxycarbonyl)piperazin-1-yl)pyridin-3-yl)-N-phenethylsulfamoyl)benzofuran-2-carboxylate]",50 to 100
6,"CCOC(=O)c1oc2ccc(S(=O)(=O)N(CCc3ccccc3)Cc3cccc(C)c3)cc2c1C [Example M4-23, ethyl 3-methyl-5-(N-(3-methylbenzyl)-N-phenethylsulfamoyl)benzofuran-2-carboxylate]",50 to 100
7,"CCOC(=O)c1oc2ccc(S(=O)(=O)N(CCc3ccccc3)Cc3ccc(F)cc3Cl)cc2c1C [Example M4-56, ethyl 3-methyl-5-(N-(2-chloro-4-fluorobenzyl)-N-phenethylsulfamoyl)benzofuran-2-carboxylate]",50 to 100
8,"CCOC(=O)c1oc2ccc(S(=O)(=O)N(CCc3ccccc3)c3ccc(N4CCN(S(C)(=O)=O)CC4)cc3)cc2c1C [Example M8-72, ethyl 3-methyl-5-(N-(4-(4-(methylsulfonyl)piperazin-1-yl)phenyl)-N-phenethylsulfamoyl)benzofuran-2-carboxylate]",50 to 100
9,"CCOC(=O)c1oc2ccc(S(=O)(=O)N(CCc3ccccc3)Cc3ccc(Oc4ccccc4)cc3)cc2c1C [Example M8-86, ethyl 3-methyl-5-(N-phenethyl-N-(4-phenoxybenzyl)sulfamoyl)benzofuran-2-carboxylate]",50 to 100
10,"CCOC(=O)c1oc2ccc(S(=O)(=O)N(CCc3ccccc3)Cc3ccc(C(F)(F)F)cc3)cc2c1C [Example M4-32, ethyl 3-methyl-5-(N-(4-trifluoromethylbenzyl)-N-phenethylsulfamoyl)benzofuran-2-carboxylate]",50 to 100
11,CCOC(=O)c1oc2ccc(S(=O)(=O)N(CCc3ccccc3)c3ccccc3N3CCN(Cc4ccccc4)CC3)cc2c1C [Example M10-95],50 to 100
12,CCOC(=O)c1oc2ccc(S(=O)(=O)N(CCc3ccccc3)Cc3cccc(Oc4ccccc4)c3)cc2c1C [Example M4-27],50 to 100

# Same assay, conditions: Table 1.2, FXR antagonistic activity; TR-FRET with CDCA; geometric means of at least two independent runs
row,Compound,IC50 [µM]
1,CCOC(=O)c1oc2ccc(S(=O)(=O)N(CCc3ccccc3)c3ccccc3N3CCC4(CCN(C(=O)c5sccc5Br)C4)CC3)cc2c1C [Example M10-148],50 to 100
2,"Cc1c(C(=O)O)sc2ccc(S(=O)(=O)N(CCc3ccccc3Cl)c3ccccc3N3CCN(C(=O)c4sccc4Br)CC3)cc12 [Example F27-S173, 5-(N-(2-(4-(3-bromothiophene-2-carbonyl)piperazin-1-yl)phenyl)-N-(2-chlorophenethyl)sulfamoyl)-3-methylbenzothiophene-2-carboxylic acid]",0.1 to 10
3,"C/C=C/C(=O)N1CCN(c2ccccc2N(CCc2ccccc2)S(=O)(=O)c2ccc3oc(C(=O)O)c(C)c3c2)CC1 [Example F27-S120, (E)-5-(N-(2-(4-(but-2-enoyl)piperazin-1-yl)phenyl)-N-phenethylsulfamoyl)-3-methylbenzofuran-2-carboxylic acid]",0.1 to 10
4,"COc1ccccc1C(=O)N1CCN(c2ccccc2N(CCc2ccccc2)S(=O)(=O)c2ccc3oc(C(=O)O)c(C)c3c2)CC1 [Example F27-S136, 5-(N-(2-(4-(2-methoxybenzoyl)piperazin-1-yl)phenyl)-N-phenethylsulfamoyl)3-methylbenzofuran-2-carboxylic acid]",0.1 to 10
5,"O=C(O)c1cc2cc(S(=O)(=O)N(CCc3ccccc3)c3ccccc3N3CCN(C(=O)c4sccc4Br)CC3)ccc2s1 [Example F27-S159, 5-(N-(2-(4-(3-bromothiophene-2-carbonyl)piperazin-1-yl)phenyl)-N-phenethylsulfamoyl)benzo[b]thiophene-2-carboxylic acid]",0.1 to 10
6,"CCOC(=O)c1oc2ccc(S(=O)(=O)N(CCc3ccccc3)c3ccccc3N3CCN(C(=O)c4cccnc4)CC3)cc2c1C [Example M10-116, Ethyl 3-methyl-5-(N-(2-(4-nicotinoylpiperazin-1-yl)phenyl)-N-phenethylsulfamoyl)benzofuran-2-carboxylate]",50 to 100
7,"Cc1ccc(C(=O)N2CCN(c3ccccc3N(CCc3ccccc3)S(=O)(=O)c3ccc4oc(C(=O)O)c(C)c4c3)CC2)cc1 [Example F27-S106, 3-methyl-5-(N-(2-(4-(4-methylbenzoyl)piperazin-1-yl)phenyl)-N-phenethylsulfamoyl)benzofuran-2-carboxylic acid]",0.1 to 10
8,"CCOC(=O)c1cc2ccc(S(=O)(=O)N(CCc3ccccc3)c3ccccc3N3CCN(C(=O)c4sccc4Br)CC3)cc2s1 [Example M10-160, Ethyl 6-(N-(2-(4-(3-bromothiophene-2-carbonyl)piperazin-1-yl)phenyl)-N-phenethylsulfamoyl)benzo[b]thiophene-2-carboxylate]",50 to 100
9,"O=C(O)c1cc2cc(S(=O)(=O)N(CCc3ccccc3)c3ccccc3N3CCN(C(=O)c4sccc4Br)CC3)ccc2o1 [Example F27-S162, 5-(N-(2-(4-(3-bromothiophene-2-formyl)piperazin-1-yl)phenyl)-N-phenethylsulfamoyl)benzofuran-2-carboxylic acid]",0.1 to 10
10,"Cc1c(C(=O)O)oc2ccc(S(=O)(=O)N(CCc3ccccc3)c3ccccc3N3CC4CC(C3)N4C(=O)c3sccc3Br)cc12 [Example F27-S151, 5-(N-(2-(6-(3-bromothiophene-2-carbonyl)-3,6-diazabicyclo[3.1.1]heptan-3-yl)phenyl)-N-phenethylsulfamoyl)-3-methylbenzofuran-2-carboxylic acid]",0.1 to 10
11,"CCOC(=O)c1oc2ccc(S(=O)(=O)N(CCc3ccccc3)c3ccccc3N3CCN(C(=O)c4ccc(Cl)s4)CC3)cc2c1C [Example M10-128, Ethyl 5-(N-(2-(4-(5-chlorothiophene-2-carbonyl)piperazin-1-yl)phenyl)-N-phenethylsulfamoyl)-3-methylbenzofuran-2-carboxylate]",50 to 100
12,"COc1cccc(OC)c1C(=O)N1CCN(c2ccccc2N(CCc2ccccc2)S(=O)(=O)c2ccc3oc(C(=O)O)c(C)c3c2)CC1 [Example F27-S133, 5-(N-(2-(4-(2,6-dimethoxybenzoyl)piperazin-1-yl)phenyl)-N-phenethylsulfamoyl)3-methylbenzofuran-2-carboxylic acid]",0.1 to 10
13,"CCOC(=O)c1sc2ccc(S(=O)(=O)N(CCc3ccccc3OC)c3ccccc3N3CCN(C(=O)c4sccc4Br)CC3)cc2c1C [Example M10-173, Ethyl 5-(N-(2-(4-(3-bromothiophene-2-carbonyl)piperazin-1-yl)phenyl)-N-(2-methoxyphenethyl)sulfamoyl)-3-methylbenzothiophene-2-carboxylate]",50 to 100
14,"Cc1c(C(=O)O)oc2ccc(S(=O)(=O)N(CCc3ccccc3)c3ccccc3N3CCN(C(=O)c4ccsc4)CC3)cc12 [Example F27-S119, 3-methyl-5-(N-phenethyl-N-(2-(4-(thiophene-3-carbonyl)piperazin-1-yl)phenyl)sulfamoyl)benzofuran-2-carboxylic acid]",0.1 to 10
15,"CCOC(=O)c1oc2ccc(S(=O)(=O)N(CCc3ccccc3)c3ccccc3N3CCN(C(=O)c4sccc4Br)C(C)C3)cc2c1C (stereo not drawn) [Example M10-156, Ethyl 5-(N-(2-(4-(3-bromothiophene-2-formyl)-3-methylpiperazin-1-yl)phenyl)-N-phenethylsulfamoyl)3-methylbenzofuran-2-carboxylate]",50 to 100
16,"CCOC(=O)c1sc2ccc(S(=O)(=O)N(CCc3ccccc3)c3ccccc3N3CCN(C(=O)c4sccc4Br)CC3)cc2c1C [Example M10-158, ethyl 5-(N-(2-(4-(3-bromothiophene-2-carbonyl)piperazin-1-yl)phenyl)-N-phenethylsulfamoyl)-3-toluothiophene-2-carboxylate]",50 to 100
17,"Cc1c(C(=O)O)oc2cc(S(=O)(=O)N(CCc3ccccc3)c3ccccc3N3CCN(C(=O)c4sccc4Br)CC3)ccc12 [Example F27-S163, 6-(N-(2-(4-(3-bromothiophene-2-formyl)piperazin-1-yl)phenyl)-N-phenethylsulfamoyl)3-methylbenzofuran-2-carboxylic acid]",0.1 to 10
18,"Cc1c(C(=O)O)oc2ccc(S(=O)(=O)N(CCc3ccccc3)c3ccccc3N3CCN(C(=O)c4sccc4Br)C[C@H]3C)cc12 [Example F27-S153, (R)-5-(N-(2-(4-(3-bromothiophene-2-carbonyl)-2-methylpiperazin-1-yl)phenyl)-N-phenethylsulfamoyl)-3-methylbenzofuran-2-carboxylic acid]",0.1 to 10
